Test results taken from US20260198497A1, “A BENZENE RING-SUBSTITUTED PYRIMIDINECARBOXYLIC ACID COMPOUND, PREPARATION METHOD THEREFOR, HERBICIDAL COMPOSITION AND APPLICATION THEREOF” (QINGDAO KINGAGROOT CHEMICAL COMPOUND CO., LTD., priority 2023, published 2026).
Where two headings read alike, the source gives them in different places.

Experiments:
Veronica = assay: Post-emergence test on weeds; format: in vivo; design: key: 0 = no effect, 9 = completely dead (levels by growth control rate); conditions: 30 g a.i./ha, 3 weeks after application
Description: (§1) The criteria for activity levels of plant damage (i.e., growth control rate) are as follows: • Level 9: completely dead; • Level 8: growth control rate is greater than or equal to 90% and less than 100%; • Level 7: growth control rate is greater than or equal to 80% and less than 90%; • Level 6: growth control rate is greater than or equal to 70% and less than 80%; • Level 5: growth control rate is greater than or equal to 50% and less than 70%; • Level 4: growth control rate is greater than or equal to 30% and less than 50%; • Level 3: growth control rate is greater than or equal to 20% and less than 30%; • Level 2: growth control rate is greater than or equal to 10% and less than 20%; • Level 1: growth control rate is less than 10%; • Level 0: no effect.
(§2) The above growth control rates are fresh weight control rates.
(§3) Monocotyledonous and dicotyledonous weed seeds (Descurainia sophia, Capsella bursa-pastoris, Abutilon theophrasti, Galium spurium, Stellaria media, Lithospermum arvense, Rorippa indica, Alopecurus aequalis, Alopecurus japonicus, Eleusine indica, Beckmannia syzigachne, Sclerochloa dura, Erigeron canadensis, Phleum paniculatum, Veronica, Bromus japonicus, Aegilops tauschii, Phalaris arundinacea, Amaranthus retroflexus, Chenopodium, Commelina communis, Cichorium endivia, Convolvulus arvensis, Cirsium arvense, Solanum nigrum, Acalypha australis, Digitaria sanguinalis, Echinochloa crusgalli, Setaria viridis, Setaria pumila, Leptochloa chinensis, Monochoria vaginalis, Sagittaria trifolia, Schoenoplectiella juncoides, Cyperus rotundus, Cyperus iria, Cyperus difformis, Fimbristylis, Portulaca oleracea, Xanthium sibiricum, Ipomoea nil, Eschenbachia japonica, etc.) and major crop seeds (wheat, maize, paddy rice, soybean, cotton, oilseed rape, millet, sorghum, potato, sesame, castor plant, Chinese cabbage, radish, etc.) were placed in plastic pots filled with soil and then covered with 0.5-2 cm of soil to allow them to grow in a favorable greenhouse environment. Two weeks after sowing, the test plants were treated at the stage of 2-3 leaves. The test compounds of the present invention were individually dissolved with acetone, then added with Tween® 80, with 1.5 L/ha of methyl oleate emulsifiable concentrate as a synergist, diluted into solution of a certain concentration using a certain amount of water, and sprayed to plants using a spray tower. After drug application, the experimental results on weeds were collected after 3 weeks of cultivation in a greenhouse. The compounds were applied at 120, 60, 30, and 15 g a.i./ha in triplicate, and the results were averaged.

Chinese cabbage = assay: Post-emergence test, crop safety; conditions: in vivo, 3 weeks
Description: as §1, §2, §3

Maize = assay: Post-emergence test, crop safety; conditions: in vivo, 3 weeks
Description: as §1, §2, §3

Oilseed rape = assay: Post-emergence test, crop safety; conditions: in vivo, 3 weeks
Description: as §1, §2, §3

Paddy rice = assay: Post-emergence test, crop safety; conditions: in vivo, 3 weeks
Description: as §1, §2, §3

Radish = assay: Post-emergence test, crop safety; conditions: in vivo, 3 weeks
Description: as §1, §2, §3

Wheat = assay: Post-emergence test, crop safety; conditions: in vivo, 3 weeks
Description: as §1, §2, §3

Bidens tripartita = assay: Control effect evaluation on weeds in paddy fields; format: in vivo; conditions: 75 g a.i./ha, paddy pot, 14th day after treatment, seeds resistant to pyrazosulfuron-ethyl
Description: as §1, §2
(§4) After paddy field soil was loaded into a 1/1,000,000 ha pot, the seeds of Monochoria vaginalis, Pontederia korsakowii and Bidens tripartita were sowed and gently covered with soil, then left to stand in a greenhouse with water storage of 0.5-1 cm deep. The tuber of Sagittaria trifolia was planted on the next day or 2 days later. The water storage was kept at a depth of 3-4 cm thereafter. When the Monochoria vaginalis, Pontederia korsakowii and Bidens tripartita reached their 0.5-leaf stages and the Sagittaria trifolia reached the primary leaf stage, WP or SC aqueous dilutions of the compounds of the present invention formulated according to customary formulation methods were homogeneously dripped for treatment to the specified effective amount using pipettes.
(§5) The effects were evaluated according to the above-mentioned criteria for activity levels.

Monochoria vaginalis [1] = assay: Control effect evaluation on weeds in paddy fields; format: in vivo; conditions: 75 g a.i./ha, paddy pot, 14th day after treatment, seeds resistant to pyrazosulfuron-ethyl
Description: as §1, §2, §4, §5

Pontederia korsakowii = assay: Control effect evaluation on weeds in paddy fields; format: in vivo; conditions: 75 g a.i./ha, paddy pot, 14th day after treatment, seeds resistant to pyrazosulfuron-ethyl
Description: as §1, §2, §4, §5

[2] = test system: paddy rice (japonica rice); conditions: in vivo
Description: as §1, §2
In addition, after being loaded into the 1/1,000,000 ha pot, the paddy field soil was leveled to keep the water storage at a depth of 3-4 cm. The paddy rice (japonica rice) at 3-leaf stage was transplanted at a transplanting depth of 3 cm on the next day. The compounds of the present invention were treated in the same manner as above on the 5th day after the transplantation.
as §5

Monochoria vaginalis [3] = assay: Activity assay of compositions, post-emergence spray of stems and leaves; format: in vivo; conditions: 21 days
Protocol: The required active ingredient B was purchased from a reagent company or a technical material manufacturer or synthesized by a conventional method. […] The technical materials were all dissolved with acetone solvents and diluted with aqueous solution of 0.1% Tween® 80 emulsifier, which should be used immediately after dilution.
Weeds were cultivated by a pot culture method. […] Weed seeds with plump and uniform grains were selected, soaked in lukewarm water at 25° C. for 6 hours, and accelerated to germinate in a 28° C. biochemical incubator (in darkness). The weed seeds that had just germinated were evenly placed on the surface of the soil and then covered with 0.5-1 cm soil according to the sizes of seeds.
The weeds were cultured in a controllable sunlight greenhouse at 20-30° C., in natural light, and with relative humidity of 57%-72%. The soil was loam with an organic matter content of 1.63%, a pH value of 7.1, alkali-hydrolyzable nitrogen of 84.3 mg/kg, rapidly available phosphorus of 38.5 mg/kg, and rapidly available potassium of 82.1 mg/kg.
Each treatment was repeated 4 times for 3 pots. Each pot was seeded with 20 weed seeds.
The drugs were applied once in total in the experiment. When at the stage of 1.5-2 leaves, the weeds were thinned out to maintain 10 strains per pot. Thirty strains were kept in each treatment and then continued to be cultured until the Erigeron canadensis reached 10 cm tall and other weeds in their 3-4 leaf stage for further treatment.
The well-cultured test materials were evenly placed on a 0.5 m^2 platform and foliage-sprayed by the 3WP-2000-type walking spray tower at a dosage of […] and a spray pressure of 0.3 MPa. After all the drug solution was sprayed, the air valve was closed. And 30 seconds later, the door of the spray tower was opened, and the nutritional bowl was taken out. Next, the air valve was opened, and the spray tube was cleaned by spraying 50 ml of water. The test materials were transferred to and routinely cultured in a greenhouse after the treatment.
A method for investigating absolute numbers was employed. The whole seedlings of the survival weeds were cut along the soil surface with a blade, and the fresh weight of the weeds was weighed by an analytical balance. For dead weeds, the fresh weight thereof was considered zero.
The investigation was performed 21 days after the treatment for once in total.
The theoretical fresh weight inhibition rate of a mixed combination of each treatment was calculated by the Gowing method (E0=X+Y−X*Y/100). Then compared with the measured inhibition rate (E), the type of the combined action of the combination of the two on weeds was evaluated, which was a synergistic effect when E−E0>10; an antagonistic effect when E−E0<−10%; an additional effect when −10≤E−E0≤[…]. An optimal ratio was determined according to factors such as the actual control effects, characteristics of herbicides, balance of the formulation, etc. In the formula, X represents the fresh weight inhibition rate of the active ingredient A in a dosage of P; Y represents the fresh weight inhibition rate of the active ingredient B in a dosage of Q. The statistical results are shown in Table 5 below.

Compound: CCOC(=O)c1nc(-c2ccc(C(F)(F)F)c(OC)c2F)nc(N)c1OC [Compound 24]
- activity level of plant damage (growth control rate), Veronica (Veronica): 9
- activity level of plant damage (growth control rate), Chinese cabbage (Chinese cabbage): 0
- activity level of plant damage (growth control rate), Maize (Maize): 0
- activity level of plant damage (growth control rate), Oilseed rape (Oilseed rape): 0
- activity level of plant damage (growth control rate), Paddy rice (Paddy rice): 0
- activity level of plant damage (growth control rate), Radish (Radish): 0
- activity level of plant damage (growth control rate), Wheat (Wheat): 0
- activity level, Bidens tripartita (Bidens tripartita): 9
- activity level, Monochoria vaginalis (Monochoria vaginalis [1]): 9
- activity level, Pontederia korsakowii (Pontederia korsakowii): 9
- activity level, Paddy rice ([2]; japonica, paddy rice, 21 days): 0

Compound: COC(=O)c1nc(-c2ccc(C(F)(F)F)c(OC)c2Cl)nc(N)c1OC [Compound 2]
- activity level of plant damage (growth control rate), Veronica (Veronica): 9
- activity level, Bidens tripartita (Bidens tripartita): 9
- activity level, Monochoria vaginalis (Monochoria vaginalis [1]): 9
- activity level, Pontederia korsakowii (Pontederia korsakowii): 9
- activity level, Paddy rice [2]: 0

Compound: COc1c(N)nc(-c2ccc(C(F)(F)F)c(OC)c2F)nc1C(=O)OCC(F)(F)F [Compound 62]
- activity level of plant damage (growth control rate), Veronica (Veronica): 9
- activity level of plant damage (growth control rate), Chinese cabbage (Chinese cabbage): 0
- activity level of plant damage (growth control rate), Maize (Maize): 0
- activity level of plant damage (growth control rate), Oilseed rape (Oilseed rape): 0
- activity level of plant damage (growth control rate), Paddy rice (Paddy rice): 0
- activity level of plant damage (growth control rate), Radish (Radish): 0
- activity level of plant damage (growth control rate), Wheat (Wheat): 0
- activity level, Bidens tripartita (Bidens tripartita): 9
- activity level, Monochoria vaginalis (Monochoria vaginalis [1]): 9
- activity level, Pontederia korsakowii (Pontederia korsakowii): 9
- activity level, Paddy rice ([2]; japonica, paddy rice, 21 days): 0

Compound: COc1c(N)nc(-c2ccc(C(F)(F)F)c(OC)c2F)nc1C(=O)ON=C(C)C [Compound 106]
- activity level of plant damage (growth control rate), Veronica (Veronica): 9
- activity level of plant damage (growth control rate), Chinese cabbage (Chinese cabbage): 0
- activity level of plant damage (growth control rate), Maize (Maize): 0
- activity level of plant damage (growth control rate), Oilseed rape (Oilseed rape): 0
- activity level of plant damage (growth control rate), Paddy rice (Paddy rice): 0
- activity level of plant damage (growth control rate), Radish (Radish): 0
- activity level of plant damage (growth control rate), Wheat (Wheat): 0
- activity level, Bidens tripartita (Bidens tripartita): 9
- activity level, Monochoria vaginalis (Monochoria vaginalis [1]): 9
- activity level, Pontederia korsakowii (Pontederia korsakowii): 9
- activity level, Paddy rice ([2]; japonica, paddy rice, 21 days): 0

Compound: COC(=O)c1nc(-c2ccc(C(F)(F)F)c(OC)c2F)nc(N)c1OC [Compound 3]
- activity level of plant damage (growth control rate), Veronica (Veronica): 9
- activity level of plant damage (growth control rate), Chinese cabbage (Chinese cabbage): 0
- activity level of plant damage (growth control rate), Maize (Maize): 0
- activity level of plant damage (growth control rate), Oilseed rape (Oilseed rape): 0
- activity level of plant damage (growth control rate), Paddy rice (Paddy rice): 0
- activity level of plant damage (growth control rate), Radish (Radish): 0
- activity level of plant damage (growth control rate), Wheat (Wheat): 0
- activity level, Bidens tripartita (Bidens tripartita): 9
- activity level, Monochoria vaginalis (Monochoria vaginalis [1]): 9
- activity level, Pontederia korsakowii (Pontederia korsakowii): 9
- activity level, Paddy rice ([2]; japonica, paddy rice, 21 days): 0

Compound: COc1c(N)nc(-c2ccc(C(F)(F)F)c(OC)c2F)nc1C(=O)OC1CC1 [Compound 116]
- activity level of plant damage (growth control rate), Veronica (Veronica): 9
- activity level of plant damage (growth control rate), Chinese cabbage (Chinese cabbage): 0
- activity level of plant damage (growth control rate), Maize (Maize): 0
- activity level of plant damage (growth control rate), Oilseed rape (Oilseed rape): 0
- activity level of plant damage (growth control rate), Paddy rice (Paddy rice): 0
- activity level of plant damage (growth control rate), Radish (Radish): 0
- activity level of plant damage (growth control rate), Wheat (Wheat): 0
- activity level, Bidens tripartita (Bidens tripartita): 9
- activity level, Monochoria vaginalis (Monochoria vaginalis [1]): 9
- activity level, Pontederia korsakowii (Pontederia korsakowii): 9
- activity level, Paddy rice ([2]; japonica, paddy rice, 21 days): 0

Compound: CC(C)N1C(=O)c2ccccc2NS1(=O)=O [Bentazone, bentazone]
- Control effect of B applied alone in a corresponding dose (%) (Monochoria vaginalis [3]; B 150 g a.i./ha): 45.2%
- Control effect of B applied alone in a corresponding dose (%) (Monochoria vaginalis [3]; B 300 g a.i./ha): 60.5%

Compound: CCC(=O)Nc1ccc(Cl)c(Cl)c1 [Propanil, propanil]
- Control effect of B applied alone in a corresponding dose (%) (Monochoria vaginalis [3]; B 600 g a.i./ha): 22.1%
- Control effect of B applied alone in a corresponding dose (%) (Monochoria vaginalis [3]; B 1200 g a.i./ha): 37.4%

Compound: COC(=O)c1nc(-c2ccc(C(F)F)c(OC)c2F)nc(N)c1OC [Compound 4]
- activity level of plant damage (growth control rate), Veronica (Veronica): 9
- activity level, Bidens tripartita (Bidens tripartita): 9
- activity level, Monochoria vaginalis (Monochoria vaginalis [1]): 9
- activity level, Pontederia korsakowii (Pontederia korsakowii): 9
- activity level, Paddy rice [2]: 0
